Measured values taken from patent publication US12145913B2, “Inhibition of Olig2 activity” (Curtana Pharmaceuticals, Inc., priority 2016, dated 2024).
“And” between values parts separate entries of the source, which are not always exact repeats. Equal values may be shown once. Where a name gives a salt, the structure may show the parent alone.

Legend:
[1] = test system: GBM8 human glioblastoma cells; assay: GBM8 viability assay (Cell Titer Glo); type: cell-based; conditions: 72 h, Table 1, 3 days incubation, luminescence
Method in brief: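 Patient-derived GBM4 and GBM8 neurosphere cells, 4000 per well in EGF/bFGF/heparin-supplemented NeuroCult medium, were exposed to compound (added in 1% DMSO solution) for 3 days at 37° C. Growth was read by CellTiter-Glo luminescence versus DMSO wells, and IC50s came from 4-parameter fits of serial dilutions.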

[2] = test system: Human GBM8 glioblastoma flank tumor; assay: Tumor growth inhibition in mouse flank tumor model, GBM8; type: in vivo; conditions: NSG mice; for Compound + Temozolomide + radiation (median TTE): combined with temozolomide and radiation; for Compound (median TTE): compound alone
Description: (§1) The animals were fed ad libitum water (reverse osmosis, 1 ppm Cl) and NIH 31 Modified and Irradiated Lab Diet® consisting of 18.0% crude protein. 5.0% crude fat, and 5.0% crude fiber. The mice were housed on irradiated Enrich-o'Cobs™ bedding in static microisolators on a 12-hour light cycle at 20-22° C. (68-72° F.) and 40-60% humidity.
(§2) Human GBM4 or GBM8 glioblastoma cell lines were maintained in Complete NeuroCult Proliferation Medium containing 20 ng/mL EGF, 10 ng/mL bFGF and 2 μg/mL Heparin. The cells were cultured in ultra low attachment T75 flask (Corning REF-3814) and the resulting neurospheres were dissociated every 4-6 days using the NeuroCult Chemical Dissociation kit (Stemcell Technologies Cat #05707). Cell cultures were maintained in tissue culture flasks in a humidified incubator at 37° C., in an atmosphere of 5% CO2 and 95% air. Cell samples were collected one passage prior to cell implant and preserved in freezing media.
(§3) Cells used for implantation were harvested during log phase growth and resuspended in cold PBS containing in 50% Matrigel™ (BD Biosciences). Tumor growth was initiated on Day 1 by subcutaneous injection of GBM4 cells into the right flank of each mouse with 1×10^7 tumor cells (0.1 mL cell suspension) and tumor growth was monitored in four groups (n=8) beginning on Day 12. Groups for treatment included group 1 (vehicle), group 2 (test Olig2 inhibitor), group 3 (treatment with temozolomide and radiation) and group 4 (test Olig2 inhibitor combined with temozolomide and radiation). The tumors were measured with a caliper in two dimensions to monitor size. Tumor size was calculated using the formula. Tumor Volume (mm^3)=w^2×½: where w=width and l=length, in mm, of a tumor. Tumor weight may be estimated with the assumption that 1 mg is equivalent to 1 mm^3 of tumor volume Tumors were measured with a caliper twice weekly for the duration of the study Temozolomide (Merck & Co., Lot No. L046487) was administered orally at doses of 5 mg/kg or 10 mg/Kg). Radiation was adminstered with a Faxitron model CP-160 X-ray system. Each animal was immobilized in a live restrainer. Therapy was administered for 1.3 min at 160 KV and 6.0 mA, providing a dose of 1 gray (Gy) for each animal.
The study endpoint was a tumor volume of 2000 mm^3 or Day 152, whichever came first. Each animal was euthanized for tumor progression (TP) when its tumor reached the volume endpoint. The time to endpoint (TTE) for each animal was calculated with the following equation: […]
The data set is comprised of the first observation that exceeded the study endpoint volume and the three consecutive observations that immediately preceded the attainment of the endpoint volume. […] In instances in which the log-transformed calculated TTE preceded the day prior to reaching endpoint or exceeded the day of reaching tumor volume endpoint, a linear interpolation was performed to approximate the TTE. Any animal determined to have died from treatment-related (TR) causes was assigned a TTE value equal to the day of death. […]
Treatment outcome was evaluated from tumor growth delay (TGD), which was defined as the increase in the median TTE for a treatment group compared to the control group: TGD=T−C, expressed in days, or as a percentage of the median TTE of the control group: TGD(%)=T−C/C×100 • T=median TTE for a treatment group, • C=median TTE for the control group.

[3] = test system: G06 patient-derived glioblastoma cells, intracranial; assay: Survival in orthotopic glioblastoma mouse model, G06; type: in vivo; conditions: athymic nude mice, oral daily from day 4, percent increase of median versus vehicle
Text: (§4) Patient-derived xenograft samples were used in this study as a more faithful representation of human glioblastoma compared to immortalized cell lines. The maintenance of patient-derived xenografts exclusively by serial passage in mice has been advocated as a means to faithfully preserve the genetic features of the original tumors. Tumor integrity is periodically confirmed by short tandem repeat assessment. These methods were used to obtain cell suspensions of G06 cells for use in vivo. Briefly, short-term cultured cells were injected into the flank of athymic nude mice (Nu/Nu: Envigo). Tumors grown in these mice were harvested and cultured to afford cell suspension for viability studies. Mice with tumors 1-1.5 cm^3 were euthanized using CO2. Tumors were swabbed with Betadine (Carefusion #29906-016) and excised with a sterile scalpel. The tumor sample was placed in a culture plate and broken up with a sterile syringe. […] The pellets were resuspended in Stem Cell Media to a concentration of […] as measured by a hemocytometer.
(§5) G06 or cultured GBM8 cells (3×10^5, 3 μL), were injected intracranially into anesthetized female athymic nude mice (Nu/Nu: Envigo). […] Animal counts and body weight were monitored daily. Survival improvement was measured as a percent increase of the median for drug treatment versus vehicle.

GBM8 cells, intracranial = assay: Survival in orthotopic glioblastoma mouse model, GBM8; type: in vivo; conditions: athymic nude mice, oral daily from day 4, percent increase of median versus vehicle
Text: as §4, §5

[4] = Solubility of compound 174 in DI water; type: physicochemical; conditions: thermodynamic from solid, 2 determinations, read-out: Estimated solubility
Description: Into a 1 dram vial was added a sample of compound 174. DI water was added until the solid was fully dissolved. Solubility was estimated from the amount of solid per mL of water added. Estimated solubility ˜30 mg/mL (2 determinations).

[5] = test system: GBM4 human glioblastoma cells; assay: GBM4 viability assay (Cell Titer Glo); type: cell-based; conditions: Table 3, GBM4 cells, read-out: GBM4 IC50 (Cytotoxicity)
Description: Cell culture medium was prepared from a NSA proliferation kit (Neurocult) and NeuroCult supplements (Stemcell Tech Cat. #05751) and treated with 20 μL of 10 μg/mL rh EGF, 10 μL of 10 μg/mL rh bFGF and 10 μL of 0.2% Heparin. In this medium, human glioblastoma cells were cultured in ultra-low attachment tissue culture flasks until 1×10^6 cells ml was achieved (GBM4 and GBM8 are distinct neurosphere cell cultures derived from these human patient tissues). GBM4 and GBM8 cells were dissociated and 10 mL of media containing 4000 human glioblastoma cells per 90 μL were transferred to an ultra-low binding 96-well plate and incubated at 37° C. overnight. On the following day, 10 μL of a 1% DMSO solution of test compound in assay medium was added to wells containing the cell suspension and the mixture incubated at 37° C. for 3 days. At this time, the plate was removed from the incubator and allowed to reach room temperature. After about 30 minutes, 50 μL of Cell Titer Glo solution was added to each well and the plate shaken for 1 minute at low speed. After 10 minutes luminescence was recorded using a Tecan Safire2 reader.
Reduction in luminescence compared to DMSO only control wells was used to determine the percentage inhibition of cell growth. IC50s were calculated using the % inhibition of luminescence for serial dilutions of compounds fitted to a 4-parameter fit within the Prism (San Diego) curve fitting program. Tables 1 (compounds 3-188) and 2 (compounds 190-212) show the GBM4 IC50 and GBM8 IC50 for compounds described herein.

[6] = test system: Human GBM4 glioblastoma flank tumor; assay: Tumor growth inhibition in mouse flank tumor model, GBM4; type: in vivo; conditions: NSG mice
Description: as §1, §2
as §3, with “Tumor Volume (mm^3)=w^2×½: where w=width and l=length, in mm, of a tumor.” left out, “Radiation was adminstered with a Faxitron model CP-160 X-ray system. Each animal was immobilized in a live restrainer. Therapy was administered for 1.3 min at 160 KV and 6.0 mA, providing a dose of 1 gray (Gy) for each animal.” left out
The study endpoint was a tumor volume of 2000 mm^3 or Day 152, whichever came first. […] The time to endpoint (TTE) for each animal was calculated with the following equation: […]

[7] = temozolomide orally plus radiation 1 Gy

Structure (SMILES): Cc1cc(N)nc(NC(=O)Nc2ccc(OC(F)(F)F)cc2)n1 [Compound 176, 1-(4-amino-6-methylpyrimidin-2-yl)-3-(4-(trifluoromethoxy)-phenyl)urea]
- IC50 [1]: < 0.5 µM
- Compound + Temozolomide + radiation (median TTE) [2]: 127.9 days
- Compound (median TTE) [2]: 56.4 days
- G06: Estimated Median Survival Benefit (%) [3]: 46%
- GBM8: Estimated Median Survival Benefit (%) (GBM8 cells, intracranial): 72%

Structure (SMILES): Cc1cc(NCCCN(C)C)nc(NC(=O)Nc2ccc(Cl)c(Cl)c2)n1 [Compound 174, 1-(3,4-dichlorophenyl)-3-(4-((3-(dimethylamino)propyl)amino)-6-methylpyrimidin-2-yl)urea dimethanesulfonic acid salt]
- solubility [4]: ~30 mg/mL
- IC50 [5]: 0.24 µM
- IC50 [1]: < 0.5 µM
- Compound + Temozolomide + radiation (median TTE) ([6]; combined with temozolomide and radiation): 152.0 days
- Compound (median TTE) ([6]; compound alone, endpoint 2000 mm^3 or Day 152): 73.0 days
- Compound + Temozolomide + radiation (median TTE) [2]: >140.0 days
- Compound (median TTE) [2]: 61.3 days
- G06: Estimated Median Survival Benefit (%) [3]: 54%
- GBM8: Estimated Median Survival Benefit (%) (GBM8 cells, intracranial): 48%

Structure (SMILES): Cn1nnc2c(C(N)=O)ncn2c1=O [Temozolomide, reference compound]
- Temozolomide + radiation (median TTE) [6, 7]: 116.3 days
- Temozolomide + radiation (median TTE) [2, 7]: 86.2 days and 78 days
